Series [1] concerns ASPC1. Briefly: Cellular uptake in human AsPC1 cells at 15 MBq after 10 mins by gamma counting in presence of beta-transporter substrate GABA. The series is classed as ADME, cell-based. As to conditions: aspc1, 10 min; call rule not given here.
Series [2] can be described thus: […] in mouse serum after 60 mins by HPLC analysis. The series is classed as ADME, cell-free.
Series [3] deals with T1, Delta-aminolevulinic acid dehydratase (Homo sapiens, UniProt P13716).
T1 sequence (P13716 whole entry): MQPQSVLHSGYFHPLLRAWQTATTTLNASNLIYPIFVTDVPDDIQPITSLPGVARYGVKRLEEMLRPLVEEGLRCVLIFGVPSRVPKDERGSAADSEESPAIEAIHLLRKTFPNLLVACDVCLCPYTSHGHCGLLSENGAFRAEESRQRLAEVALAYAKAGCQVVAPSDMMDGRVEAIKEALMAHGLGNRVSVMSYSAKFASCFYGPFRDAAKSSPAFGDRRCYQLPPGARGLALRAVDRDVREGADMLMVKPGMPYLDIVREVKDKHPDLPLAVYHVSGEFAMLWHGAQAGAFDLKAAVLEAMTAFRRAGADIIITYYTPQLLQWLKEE
Briefly: Inhibition of ALAD (unknown origin).

In series [4] the test system is ASPC1. Briefly: Cellular uptake in human AsPC1 cells at 15 MBq after 10 mins by gamma counting in presence of aminolevulinic acid. In kind it is ADME, cell-based. Conditions: aspc1, 10 min.
Series [5] in a line: Protein binding in mouse serum by ultrafiltration method. In kind it is ADME, cell-free. As to conditions: read-out: PB (converted).
The subject of series [6] is ASPC1. The series can be described thus: Cellular uptake in human AsPC1 cells at 15 MBq by gamma counting. The series is classed as ADME, cell-based. Conditions: TDE = time-dependent effect.
The subject of series [7] is ASPC1. The series can be described thus: Cellular uptake in human AsPC1 cells at 15 MBq after 10 mins by gamma counting in presence of PEPT1/2 substrate glycylsarcosine. The series is classed as ADME, cell-based. As to conditions: aspc1, 10 min.

Structures are written as SMILES.

The term Ki denotes a measure of affinity in units of concentration, obtained from inhibition or displacement. Higher therefore signals weaker binding. Consider `[11CH3]C(N)C(=O)CCC(=O)O` (racemic), for which the Drug uptake result is on record as “Not Active” in the series with ASPC1 [1], “Not Active” in the series on ASPC1 [4], “tde” with ASPC1 [6] and “Not Active” in the series on ASPC1 [7]. This compound also displayed a fraction unbound at 1 h in series [2] of 0.974. This compound returned a Ki in series [3] of 200 nM. In addition, the fraction unbound in series [5] was 0.973.

These data come from ChEMBL document CHEMBL2407063, “Synthesis and in vitro cellular uptake of 11C-labeled 5-aminolevulinic acid derivative to estimate the induced cellular accumulation of protoporphyrin IX” (Bioorg Med Chem Lett, 2013).
